Experimental data published in PubChem BioAssay (NCI).
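A five-concentration, 48-hour dose response in 96-well plates underlies each endpoint, interpolated linearly between surrounding concentrations. Definition used: TGI = concentration required for complete inhibition of growth.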

What was measured:
Assay in all cases: NCI-60 cell line screen, 48 h
KM12 colon = system: KM12 colon
U251 CNS = system: U251 CNS
DMS 273 small cell lung = system: DMS 273 small cell lung
HCT-15 colon = system: HCT-15 colon
LOX IMVI melanoma = system: LOX IMVI melanoma
ACHN renal = system: ACHN renal
NCI-H522 lung = system: NCI-H522 lung
SNB-75 CNS = system: SNB-75 CNS
HL-60(TB) leukemia = system: HL-60(TB) leukemia
LXFL 529 NSCLC = system: LXFL 529 NSCLC
A549 NSCLC = system: A549 NSCLC
TK-10 renal = system: TK-10 renal
SK-MEL-28 melanoma = system: SK-MEL-28 melanoma
SN12C renal = system: SN12C renal
CCRF-CEM leukemia = system: CCRF-CEM leukemia
SK-OV-3 ovarian = system: SK-OV-3 ovarian
OVCAR-8 ovarian = system: OVCAR-8 ovarian
MALME-3M melanoma = system: MALME-3M melanoma
K-562 leukemia = system: K-562 leukemia
SF-539 CNS = system: SF-539 CNS
HT29 colon = system: HT29 colon
HCT-116 colon = system: HCT-116 colon
SK-MEL-2 melanoma = system: SK-MEL-2 melanoma
SF-268 CNS = system: SF-268 CNS
OVCAR-4 ovarian = system: OVCAR-4 ovarian
SNB-19 CNS = system: SNB-19 CNS
UACC-62 melanoma = system: UACC-62 melanoma
SK-MEL-5 melanoma = system: SK-MEL-5 melanoma
RXF 393 renal = system: RXF 393 renal
DLD-1 colon = system: DLD-1 colon
OVCAR-3 ovarian = system: OVCAR-3 ovarian
SNB-78 CNS = system: SNB-78 CNS
NCI-H23 lung = system: NCI-H23 lung
DMS 114 small cell lung = system: DMS 114 small cell lung
NCI-H226 lung = system: NCI-H226 lung
MOLT-4 leukemia = system: MOLT-4 leukemia
XF 498 CNS = system: XF 498 CNS
NCI-H460 lung = system: NCI-H460 lung
SF-295 CNS = system: SF-295 CNS
SW-620 colon = system: SW-620 colon
UACC-257 melanoma = system: UACC-257 melanoma
HOP-62 NSCLC = system: HOP-62 NSCLC
UO-31 renal = system: UO-31 renal
HCC-2998 colon = system: HCC-2998 colon
M14 melanoma = system: M14 melanoma
EKVX NSCLC = system: EKVX NSCLC
RPMI-8226 leukemia = system: RPMI-8226 leukemia
HOP-92 NSCLC = system: HOP-92 NSCLC
786-0 renal = system: 786-0 renal
CAKI-1 renal = system: CAKI-1 renal
OVCAR-5 ovarian = system: OVCAR-5 ovarian
SR leukemia = system: SR leukemia
M19-MEL melanoma = system: M19-MEL melanoma
IGROV1 ovarian = system: IGROV1 ovarian
KM20L2 colon = system: KM20L2 colon
COLO 205 colon = system: COLO 205 colon

Q: What does the source list for CN(C)CCCNC(=O)c1cccc2ccccc12?
A: TGI (KM12 colon): > 100 µM; TGI (U251 CNS): > 100 µM; TGI (DMS 273 small cell lung): > 100 µM; TGI (HCT-15 colon): > 100 µM; TGI (LOX IMVI melanoma): > 100 µM; TGI (ACHN renal): > 100 µM; TGI (NCI-H522 lung): > 100 µM; TGI (SNB-75 CNS): > 100 µM; TGI (HL-60(TB) leukemia): > 100 µM; TGI (LXFL 529 NSCLC): > 100 µM; TGI (A549 NSCLC): > 100 µM; TGI (TK-10 renal): > 100 µM; TGI (SK-MEL-28 melanoma): > 100 µM; TGI (SN12C renal): > 100 µM; TGI (CCRF-CEM leukemia): > 100 µM; TGI (SK-OV-3 ovarian): > 100 µM; TGI (OVCAR-8 ovarian): > 100 µM; TGI (MALME-3M melanoma): > 100 µM; TGI (K-562 leukemia): > 100 µM; TGI (SF-539 CNS): > 100 µM; TGI (HT29 colon): > 100 µM; TGI (HCT-116 colon): > 100 µM; TGI (SK-MEL-2 melanoma): > 100 µM; TGI (SF-268 CNS): > 100 µM; TGI (OVCAR-4 ovarian): > 100 µM; TGI (SNB-19 CNS): > 100 µM; TGI (UACC-62 melanoma): > 100 µM; TGI (SK-MEL-5 melanoma): > 100 µM; TGI (RXF 393 renal): > 100 µM; TGI (DLD-1 colon): > 100 µM; TGI (OVCAR-3 ovarian): > 100 µM; TGI (SNB-78 CNS): > 100 µM; TGI (NCI-H23 lung): > 100 µM; TGI (DMS 114 small cell lung): > 100 µM; TGI (NCI-H226 lung): > 100 µM; TGI (MOLT-4 leukemia): > 100 µM; TGI (XF 498 CNS): > 100 µM; TGI (NCI-H460 lung): > 100 µM; TGI (SF-295 CNS): > 100 µM; TGI (SW-620 colon): > 100 µM; TGI (UACC-257 melanoma): > 100 µM

Q: Which TGI (HOP-62 NSCLC) does the source give for c1ccc(C2N=NN(c3ccccc3)C2N2CCCCC2)cc1 (stereo not given) here?
A: > 100 µM

Q: What about the TGI (UO-31 renal) of the same compound?
A: > 100 µM

Q: And the TGI (KM12 colon)?
A: > 100 µM

Q: What about the TGI (U251 CNS) of the same compound?
A: > 100 µM

Q: What about the TGI (HCC-2998 colon) of the same compound?
A: > 100 µM

Q: And the TGI (HCT-15 colon)?
A: > 100 µM

Q: And the TGI (M14 melanoma)?
A: > 100 µM

Q: And the TGI (LOX IMVI melanoma)?
A: > 100 µM

Q: What about the TGI (EKVX NSCLC) of the same compound?
A: > 100 µM

Q: What about the TGI (ACHN renal) of the same compound?
A: > 100 µM

Q: And the TGI (NCI-H522 lung)?
A: > 100 µM

Q: And the TGI (SNB-75 CNS)?
A: 55 µM

Q: And the TGI (HL-60(TB) leukemia)?
A: > 100 µM

Q: What about the TGI (RPMI-8226 leukemia) of the same compound?
A: > 100 µM

Q: What about the TGI (HOP-92 NSCLC) of the same compound?
A: 62.4 µM

Q: And the TGI (LXFL 529 NSCLC)?
A: > 100 µM

Q: And the TGI (A549 NSCLC)?
A: > 100 µM

Q: What about the TGI (786-0 renal) of the same compound?
A: > 100 µM

Q: And the TGI (TK-10 renal)?
A: > 100 µM

Q: What about the TGI (SK-MEL-28 melanoma) of the same compound?
A: > 100 µM

Q: And the TGI (SN12C renal)?
A: > 100 µM

Q: What about the TGI (CCRF-CEM leukemia) of the same compound?
A: > 100 µM

Q: And the TGI (CAKI-1 renal)?
A: > 100 µM

Q: What about the TGI (OVCAR-5 ovarian) of the same compound?
A: > 100 µM

Q: What about the TGI (SK-OV-3 ovarian) of the same compound?
A: 98.3 µM

Q: And the TGI (MALME-3M melanoma)?
A: > 100 µM

Q: What about the TGI (K-562 leukemia) of the same compound?
A: > 100 µM

Q: What about the TGI (SF-539 CNS) of the same compound?
A: > 100 µM

Q: What about the TGI (SR leukemia) of the same compound?
A: > 100 µM

Q: What about the TGI (M19-MEL melanoma) of the same compound?
A: > 100 µM

Q: And the TGI (IGROV1 ovarian)?
A: > 100 µM

Q: And the TGI (HT29 colon)?
A: > 100 µM

Q: And the TGI (HCT-116 colon)?
A: > 100 µM

Q: What about the TGI (SK-MEL-2 melanoma) of the same compound?
A: > 100 µM

Q: What about the TGI (SF-268 CNS) of the same compound?
A: > 100 µM

Q: And the TGI (OVCAR-4 ovarian)?
A: > 100 µM

Q: What about the TGI (SNB-19 CNS) of the same compound?
A: > 100 µM

Q: And the TGI (UACC-62 melanoma)?
A: > 100 µM

Q: And the TGI (KM20L2 colon)?
A: > 100 µM

Q: What about the TGI (SK-MEL-5 melanoma) of the same compound?
A: > 100 µM

Q: What about the TGI (DLD-1 colon) of the same compound?
A: > 100 µM

Q: And the TGI (OVCAR-3 ovarian)?
A: > 100 µM

Q: What about the TGI (SNB-78 CNS) of the same compound?
A: > 100 µM

Q: What about the TGI (NCI-H23 lung) of the same compound?
A: > 100 µM

Q: What about the TGI (DMS 114 small cell lung) of the same compound?
A: > 100 µM

Q: What about the TGI (NCI-H226 lung) of the same compound?
A: > 100 µM

Q: What about the TGI (MOLT-4 leukemia) of the same compound?
A: > 100 µM

Q: And the TGI (COLO 205 colon)?
A: > 100 µM

Q: And the TGI (XF 498 CNS)?
A: > 100 µM

Q: And the TGI (SF-295 CNS)?
A: > 100 µM

Q: What about the TGI (SW-620 colon) of the same compound?
A: > 100 µM

Q: What about the TGI (UACC-257 melanoma) of the same compound?
A: > 100 µM

Q: Which results are given for OCCCCOC(c1ccccc1)(c1ccccc1)c1ccccc1?
A: TGI (HOP-62 NSCLC): > 100 µM; TGI (UO-31 renal): > 100 µM; TGI (KM12 colon): > 100 µM; TGI (U251 CNS): > 100 µM; TGI (DMS 273 small cell lung): > 100 µM; TGI (HCC-2998 colon): > 100 µM; TGI (HCT-15 colon): > 100 µM; TGI (M14 melanoma): > 100 µM; TGI (LOX IMVI melanoma): > 100 µM; TGI (ACHN renal): > 100 µM; TGI (NCI-H522 lung): > 100 µM; TGI (SNB-75 CNS): > 100 µM; TGI (HL-60(TB) leukemia): > 100 µM; TGI (RPMI-8226 leukemia): > 100 µM; TGI (HOP-92 NSCLC): > 100 µM; TGI (LXFL 529 NSCLC): > 100 µM; TGI (A549 NSCLC): > 100 µM; TGI (786-0 renal): > 100 µM; TGI (TK-10 renal): > 100 µM; TGI (SK-MEL-28 melanoma): > 100 µM; TGI (SN12C renal): > 100 µM; TGI (CCRF-CEM leukemia): > 100 µM; TGI (CAKI-1 renal): > 100 µM; TGI (OVCAR-5 ovarian): > 100 µM; TGI (SK-OV-3 ovarian): > 100 µM; TGI (OVCAR-8 ovarian): > 100 µM; TGI (MALME-3M melanoma): > 100 µM; TGI (K-562 leukemia): > 100 µM; TGI (SF-539 CNS): > 100 µM; TGI (SR leukemia): > 100 µM; TGI (IGROV1 ovarian): > 100 µM; TGI (HT29 colon): > 100 µM; TGI (HCT-116 colon): > 100 µM; TGI (SF-268 CNS): > 100 µM; TGI (OVCAR-4 ovarian): > 100 µM; TGI (UACC-62 melanoma): > 100 µM; TGI (KM20L2 colon): > 100 µM; TGI (SK-MEL-5 melanoma): > 100 µM; TGI (RXF 393 renal): > 100 µM; TGI (DLD-1 colon): > 100 µM; TGI (OVCAR-3 ovarian): > 100 µM; TGI (SNB-78 CNS): > 100 µM; TGI (NCI-H23 lung): > 100 µM; TGI (DMS 114 small cell lung): > 100 µM; TGI (NCI-H226 lung): > 100 µM; TGI (MOLT-4 leukemia): > 100 µM; TGI (COLO 205 colon): > 100 µM; TGI (XF 498 CNS): > 100 µM; TGI (NCI-H460 lung): > 100 µM; TGI (SF-295 CNS): > 100 µM; TGI (SW-620 colon): > 100 µM; TGI (UACC-257 melanoma): > 100 µM
